In PMC10179701, “Towards Protection of Nucleic Acids from Herbicide Attack: Self-Assembly of Betaines Based on Pillar[5]arene with Glyphosate and DNA” (International Journal of Molecular Sciences, 2023):
Marks after values point to notes of the source that are not given here.

Tests used:
DNA from salmon sperm [1] = assay: UV-Vis spectrophotometric titration of (pillar[5]arene-DNA) associates with GIS; format: binding; details: 1:1 composition, Tris-HCl buffer, CPA 3 × 10^–6 M, CDNA 2.5 × 10^–7 M, GIS 1:0.3 to 1:10
Text: It is well known that water-soluble derivatives of pillar[5]arene can applicate as antidotes for various drugs. The interaction of GIS with DNA with a logarithm of the association constant of 4.92 was shown. […] In this regard, a hypothesis about the possibility of using the synthesized macrocycles as a glyphosate antidote for DNA protection was proposed. Therefore, the behavior of the associate (macrocycle-DNA) with GIS was studied by UV-Vis spectroscopy to test the hypothesis above. First, a solution of DNA (2.5 × 10^–7 M) was added to the macrocycle (1–4) solution (3 × 10^–6 M). Then the herbicide solution (CGIS = 3 × 10^–6 M) was added to the resulting associate, and the absorption spectrum of the resulting ternary system was recorded. […]
Further, the interaction of the (pillar[5]arene–DNA) associated with GIS was quantified (Figure 7c,d and Figure S28). […] The effective association constants of the (macrocycle-DNA)-GIS associates of 1:1 composition were calculated (Table 2). […]
(§1) buffer solution. The UV spectra of the solutions were then recorded. The stability constant of complex was calculated by Bindfit. […]
(§2) volume of 3 mL with Tris‐HCl buffer solution. The UV spectra of the solutions were then recorded. The stability constant of each complex was calculated by Bindfit. […]
(§3) stability constant of complex was calculated by Bindfit. […]

LEC cells = assay: MTT test, LEC cells
Description: The next stage of this work was the study of pillar[5]arenes 1–4 ability to inhibit the viability and proliferative activity of embryonic lung epithelial (LEC) and human lung adenocarcinoma (A549) cells using the MTT test.
Further, the ability of GIS to inhibit the viability and proliferative activity of LEC and A549 cells was studied by the MTT test. […] The average inhibitory concentration (IC50) was calculated for GIS (Table 3). […]
1.6. Cytotoxicity of pillar[5]arenes 1–4, GIS and their mixtures on A549 and LEC Cell Lines […]
activity of LEC cells and A549 cells was investigated using the MTT test according to [2]. A549 – human alveolar adenocarcinoma cell line (ATCC, Rockville, Maryland, USA) and cow embryo lung epithelial (LEC) cells (Animal Cell Culture Collection of Russian Academy of Agricultural Science, Kazan, Russia) were cultured in DMEM (GIBCO, Waltham, MA, USA) medium supplemented with 10% serum and 100 units/mL of penicillin (PanEco, Moscow, Russia) and streptomycin (PanEco, Moscow, Russia) in a humidified atmosphere with 5% CO2 at 37 °C. Cells were seeded in 96‐well plates at a concentration of 10^4 cells/well. After 24 h of cultivation, the medium was removed from the wells and replaced with a fresh one with the addition of the test substances. The volume of the culture medium in the wells was 100
μL. After 24 h incubation of cells in the presence of substances, the medium in the wells was replaced with a fresh one containing MTT reagent at a final concentration of 0.5 mg/mL. The cells were incubated with MTT for 4 h at 37 °C in an atmosphere of 5% CO2. Then, the medium was aspirated from the wells and 100 μL of dimethyl sulfoxide was added. Probes were incubated at 37 °C for 15 min in the dark for the formazan crystals to dissolve. The optical density of the formazan solution in the wells was measured using a plate reader (BioRad xMarkTM Microplate Spectrophotometer, USA) at a wavelength of 570 nm.
Three series of experiments were carried out with at least 8 replications for each variant in the series. […]

DNA from salmon sperm [2] = assay: UV-Vis spectrophotometric titration, association with DNA from salmon sperm; format: binding; details: 1:1 complex, Tris-HCl buffer pH 7.44, CDNA 2.5 × 10^–7 M, BindFit
Description: The interaction of GIS with a series of synthesized pillar[5]arenes 1–4 and DNA was studied by UV-Vis spectroscopy. UV-Vis spectroscopy is a universal method to study the complex properties of synthetic receptors. The interaction of GIS with DNA from salmon sperm was initially studied (Figure 5). DNA from salmon sperm was chosen as a model substrate due to its relatively low molecular weight and small size. The experiments were carried out in a Tris-HCl buffer system (pH = 7.44).
The association constants were determined by spectrophotometric titration to quantify the interaction of DNA with GIS. The UV-Vis spectra of the DNA–GIS system were recorded in such a way that the DNA concentration remained constant (2.5 × 10^–7 M), and the herbicide concentration ratio increased from 1:0.3 to 1:10 (Figure 5b). The obtained experimental data were processed by the BindFit program. The association constant of a 1:1 complex was calculated (Figure S23). The logarithm of the association constant of DNA with GIS was determined as lgKa = 4.92. […] However, in this case, the association constant of the complexes was determined with a large error.
Further, the interaction of macrocycles 1–4 with the DNA from salmon sperm in Tris-HCl was studied by UV-Vis spectroscopy. […] The association constant of compound 4-DNA complex was determined by spectrophotometric titration. […] The logarithm of the association constant of pillar[5]arene 4 with the DNA was determined as lgKa (4–DNA) = 5.24.
The association constant of compound 1-DNA complex was also determined by spectrophotometric titration (Figure S25b). The logarithm of the association constant of pillar[5]arene 1 with DNA was determined as lgKa(1–DNA) = 4.88 (Figure S27). […]
as §1, §2, §3

lgKa of (pillar[5]arene-DNA) associate with GIS (DNA from salmon sperm [1]; listed as betaine pillar[5]arene containing fragments of L-Phe): 3.60
lgKa, logarithm of the association constant with DNA (DNA from salmon sperm [2]): 5.24
SMILES: C[N+](C)(CCCNC(=O)COc1cc2c(OCC(=O)NCCC[N+](C)(C)CC(=O)N[C@@H](Cc3ccccc3)C(=O)[O-])cc1Cc1cc(OCC(=O)NCCC[N+](C)(C)CC(=O)N[C@@H](Cc3ccccc3)C(=O)[O-])c(cc1OCC(=O)NCCC[N+](C)(C)CC(=O)N[C@@H](Cc1ccccc1)C(=O)[O-])Cc1cc(OCC(=O)NCCC[N+](C)(C)CC(=O)N[C@@H](Cc3ccccc3)C(=O)[O-])c(cc1OCC(=O)NCCC[N+](C)(C)CC(=O)N[C@@H](Cc1ccccc1)C(=O)[O-])Cc1cc(OCC(=O)NCCC[N+](C)(C)CC(=O)N[C@@H](Cc3ccccc3)C(=O)[O-])c(cc1OCC(=O)NCCC[N+](C)(C)CC(=O)N[C@@H](Cc1ccccc1)C(=O)[O-])Cc1cc(OCC(=O)NCCC[N+](C)(C)CC(=O)N[C@@H](Cc3ccccc3)C(=O)[O-])c(cc1OCC(=O)NCCC[N+](C)(C)CC(=O)N[C@@H](Cc1ccccc1)C(=O)[O-])C2)CC(=O)N[C@@H](Cc1ccccc1)C(=O)[O-] [Compound 4, 4,8,14,18,23,26,28,31,32,35-Decakis-[(N-[3’-dimethyl({oxidocarbonyl[S-benzyl]methyl}aminocarbonylmethyl)ammonio]propyl)aminocarbonylmethoxy]-pillar[5]arene]
lgKa of (pillar[5]arene-DNA) associate with GIS (DNA from salmon sperm [1]): decrease in lgKa by more than an order of magnitude
IC50 (LEC cells; MTT, 24 h): >100 * μg/mL
cytotoxic activity (LEC cells; concentration range 2–100 μg/mL): did not show statistically significant cytotoxic activity
